Series [1] relates to voltage dependent sodium channels. Kind of series: Sodium channel activity, guanidine flux. Type of series: cell-based.
Procedure: (§2) Biological assays to determine sodium channel activity, neuroprotection and Nav isoform selectivity were carried out according to the protocols set out in Clutterbuck et al (2009), J. Med. Chem. 52, 2694-2707.
Series [2] concerns the target Nav1.8 (Homo sapiens, UniProt Q9Y5Y9). As to the kind of experiment: Nav isoform selectivity, Nav1.8. It is filed as cell-based. On the set-up: concentration or dose not given beside the values.
The target in series [3] is Nav1.6 (Homo sapiens, UniProt Q9UQD0). As to the kind of experiment: Nav isoform selectivity, Nav1.6. Also on record: concentration or dose not given beside the values. It is filed as cell-based.
The target in series [4] is Nav1.3 (Homo sapiens, UniProt Q9NY46). Kind of series: Nav isoform selectivity, Nav1.3. Also on record: concentration or dose not given beside the values. It is filed as cell-based.
For series [5], the target named is Nav1.7 (Homo sapiens, UniProt Q15858). Kind of series: Nav isoform selectivity, Nav1.7. It is filed as cell-based. On the set-up: concentration or dose not given beside the values.
Sequence of Nav1.7 (Q15858 whole entry, canonical isoform): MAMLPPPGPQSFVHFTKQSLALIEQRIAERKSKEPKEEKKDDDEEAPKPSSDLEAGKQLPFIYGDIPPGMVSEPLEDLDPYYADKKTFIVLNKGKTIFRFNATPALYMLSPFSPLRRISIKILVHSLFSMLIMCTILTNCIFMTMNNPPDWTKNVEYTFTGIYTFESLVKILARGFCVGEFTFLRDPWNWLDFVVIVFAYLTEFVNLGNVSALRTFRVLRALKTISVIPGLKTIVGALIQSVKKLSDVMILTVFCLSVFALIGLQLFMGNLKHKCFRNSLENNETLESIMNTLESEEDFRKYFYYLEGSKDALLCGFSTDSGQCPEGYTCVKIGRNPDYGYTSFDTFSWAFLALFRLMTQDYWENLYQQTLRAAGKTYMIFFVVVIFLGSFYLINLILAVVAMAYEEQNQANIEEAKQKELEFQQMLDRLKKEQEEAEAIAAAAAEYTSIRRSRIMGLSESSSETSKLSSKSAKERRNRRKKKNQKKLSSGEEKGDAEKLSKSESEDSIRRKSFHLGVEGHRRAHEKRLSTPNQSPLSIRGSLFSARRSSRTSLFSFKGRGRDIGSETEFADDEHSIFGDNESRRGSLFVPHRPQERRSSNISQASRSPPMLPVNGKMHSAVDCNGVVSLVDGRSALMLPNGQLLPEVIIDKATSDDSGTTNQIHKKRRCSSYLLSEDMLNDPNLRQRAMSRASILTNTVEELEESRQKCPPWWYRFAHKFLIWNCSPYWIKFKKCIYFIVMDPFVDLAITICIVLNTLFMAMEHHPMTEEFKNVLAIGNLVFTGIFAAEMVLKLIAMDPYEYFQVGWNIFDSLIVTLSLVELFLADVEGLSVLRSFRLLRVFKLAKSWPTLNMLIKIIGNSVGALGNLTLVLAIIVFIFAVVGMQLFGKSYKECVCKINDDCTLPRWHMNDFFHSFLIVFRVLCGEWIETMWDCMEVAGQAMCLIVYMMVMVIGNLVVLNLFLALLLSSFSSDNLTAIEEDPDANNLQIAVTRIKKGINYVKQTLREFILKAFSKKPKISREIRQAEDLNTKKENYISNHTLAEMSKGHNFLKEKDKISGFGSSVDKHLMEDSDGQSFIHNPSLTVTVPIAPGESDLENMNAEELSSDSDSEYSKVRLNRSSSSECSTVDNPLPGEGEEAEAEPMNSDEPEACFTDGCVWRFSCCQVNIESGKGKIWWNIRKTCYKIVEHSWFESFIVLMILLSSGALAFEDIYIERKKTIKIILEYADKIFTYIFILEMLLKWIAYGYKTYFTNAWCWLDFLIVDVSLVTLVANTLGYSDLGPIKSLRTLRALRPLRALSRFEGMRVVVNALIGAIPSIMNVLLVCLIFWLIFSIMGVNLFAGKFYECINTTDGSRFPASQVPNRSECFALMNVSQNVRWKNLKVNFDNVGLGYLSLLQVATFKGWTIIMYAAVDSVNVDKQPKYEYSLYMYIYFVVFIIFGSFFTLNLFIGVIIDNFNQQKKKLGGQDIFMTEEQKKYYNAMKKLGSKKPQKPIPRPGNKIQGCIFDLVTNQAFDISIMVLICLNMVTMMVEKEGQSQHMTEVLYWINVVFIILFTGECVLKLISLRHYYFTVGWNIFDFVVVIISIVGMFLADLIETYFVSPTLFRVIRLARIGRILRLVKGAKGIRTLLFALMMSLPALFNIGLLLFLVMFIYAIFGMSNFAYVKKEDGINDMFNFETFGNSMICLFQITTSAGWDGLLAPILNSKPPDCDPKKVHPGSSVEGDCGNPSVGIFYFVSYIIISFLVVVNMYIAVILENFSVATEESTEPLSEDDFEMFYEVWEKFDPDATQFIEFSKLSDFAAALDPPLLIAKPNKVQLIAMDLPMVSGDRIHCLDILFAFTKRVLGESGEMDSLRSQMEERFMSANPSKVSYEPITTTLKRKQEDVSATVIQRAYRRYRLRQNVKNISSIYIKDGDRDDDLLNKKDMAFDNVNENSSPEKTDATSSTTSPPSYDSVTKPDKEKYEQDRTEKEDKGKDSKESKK
Series [6] addresses Nav1.4 (Homo sapiens, UniProt P35499). Kind of series: Nav isoform selectivity, Nav1.4. Also on record: concentration or dose not given beside the values. It is filed as cell-based.
For series [7], the target named is Nav1.2 (Homo sapiens, UniProt Q99250). As to the kind of experiment: Nav isoform selectivity, Nav1.2 (EP). It is filed as cell-based. On the set-up: concentration or dose not given beside the values.
Series [8] deals with Nav1.1 (Homo sapiens, UniProt P35498). Kind of series: Nav isoform selectivity, Nav1.1. Type of series: cell-based.
Procedure: as §2
Series [9] has as its target T1, Nav1.5 (Homo sapiens, UniProt Q14524). Kind of series: Nav isoform selectivity, Nav1.5.
Series [10] has as its system lymph node proliferative responses. As to the kind of experiment: Immunosuppressive activity, contact-hypersensitivity paradigm. Particulars: daily i.p. 5, 25 and 50 mg/kg from a day before sensitization; compared to vehicle. It is filed as in vivo. Here is the method: (§1) The immunosuppressive activity of Example 15 was investigated using a simple contact-hypersensitivity paradigm. […] (Data not shown). Therefore, it was not necessary to dose-titrate Example 15 in order to avoid the immunosuppression-induced neuroprotection that would mask any real neuroprotective action of Example 15. In order to limit animal usage required for a full-dose-response, as proof-of-principle, 10 mg/kg of Example 15 i.p. was selected as an initial dose for study. This dose was within the range used in humans for sodium channel-blocking agents (1-50 mg/kg p.o.), particularly when scaled to mouse (USDHHS, 2005), and was well below the maximum tolerated dose (>50 mg/kg/daily). This was investigated for a neuroprotective potential in an induced-relapse during experimental autoimmune encephalomyelitis (EAE).
T cell proliferation per 5×10^5 lymph node cells or proliferation adjusted for the number of cells in the lymph nodes is shown in FIGS. 2 and 3.

For series [11] the following is noted: in vivo. Here is the method: as §1
Series [12] has as its system induced-relapse EAE in ABH mice. As to the kind of experiment: Induced-relapse experimental autoimmune encephalomyelitis (EAE). Type of series: in vivo. The source says: In many rodent models of MS, particularly during EAE the ABH mice, there is limited demyelination and nerve damage during the initial acute-phase of paralysis that occurs 2-3 weeks following sensitization (Baker et al. 1990, Jackson et al. 2005). Nerve damage and demyelination becomes more pronounced with disease duration and the development of relapsing disease (Baker et al. 1990). The neuroprotective potential of Example 15 was therefore examined in an induced-relapse EAE paradigm.
ABH mice were injected with 1 mg mouse spinal cord homogenate in Freunds adjuvant on days 0 and 7 p.i. to induce EAE and this was repeated on 27 p.i. to induce a relapse. Animals were injected daily i.p. with either vehicle or 10 mg/kg Example 15 from day 33 onwards. Animals were monitored for the development of clinical disease and the results represent: (A) The mean maximal clinical score, during the initial acute attack around day 15-20 and the clinical relapse around day 34-40, or the mean minimal clinical score during remission from paralytic attacks. (B) The mean daily clinical score following induction of relapse. (C) The time taken to fall from an accelerating rotorod was monitored pre-treatment on day 25 or on day 48 post-disease induction, when the experiment was terminated. (D) The spinal cords were removed and nerve content was measured using a neurofilament heavy chain (Nfh)-specific ELISA. The results represent the mean±SEM of 8 animals per group. *P<0.05, **P<0.01, ***P<0.001 compared to vehicle-treated animals.

In series [13] the target is T1, Nav1.5.
[14] abbreviates: 10 mg/kg daily i.p. from day 33, vs vehicle.

Usually IC50 stands for the concentration needed to halve the response being measured.

Structures are written as SMILES. Where two headings read alike, the source gives them in different places.

T1 sequence (Q14524 whole entry, canonical isoform): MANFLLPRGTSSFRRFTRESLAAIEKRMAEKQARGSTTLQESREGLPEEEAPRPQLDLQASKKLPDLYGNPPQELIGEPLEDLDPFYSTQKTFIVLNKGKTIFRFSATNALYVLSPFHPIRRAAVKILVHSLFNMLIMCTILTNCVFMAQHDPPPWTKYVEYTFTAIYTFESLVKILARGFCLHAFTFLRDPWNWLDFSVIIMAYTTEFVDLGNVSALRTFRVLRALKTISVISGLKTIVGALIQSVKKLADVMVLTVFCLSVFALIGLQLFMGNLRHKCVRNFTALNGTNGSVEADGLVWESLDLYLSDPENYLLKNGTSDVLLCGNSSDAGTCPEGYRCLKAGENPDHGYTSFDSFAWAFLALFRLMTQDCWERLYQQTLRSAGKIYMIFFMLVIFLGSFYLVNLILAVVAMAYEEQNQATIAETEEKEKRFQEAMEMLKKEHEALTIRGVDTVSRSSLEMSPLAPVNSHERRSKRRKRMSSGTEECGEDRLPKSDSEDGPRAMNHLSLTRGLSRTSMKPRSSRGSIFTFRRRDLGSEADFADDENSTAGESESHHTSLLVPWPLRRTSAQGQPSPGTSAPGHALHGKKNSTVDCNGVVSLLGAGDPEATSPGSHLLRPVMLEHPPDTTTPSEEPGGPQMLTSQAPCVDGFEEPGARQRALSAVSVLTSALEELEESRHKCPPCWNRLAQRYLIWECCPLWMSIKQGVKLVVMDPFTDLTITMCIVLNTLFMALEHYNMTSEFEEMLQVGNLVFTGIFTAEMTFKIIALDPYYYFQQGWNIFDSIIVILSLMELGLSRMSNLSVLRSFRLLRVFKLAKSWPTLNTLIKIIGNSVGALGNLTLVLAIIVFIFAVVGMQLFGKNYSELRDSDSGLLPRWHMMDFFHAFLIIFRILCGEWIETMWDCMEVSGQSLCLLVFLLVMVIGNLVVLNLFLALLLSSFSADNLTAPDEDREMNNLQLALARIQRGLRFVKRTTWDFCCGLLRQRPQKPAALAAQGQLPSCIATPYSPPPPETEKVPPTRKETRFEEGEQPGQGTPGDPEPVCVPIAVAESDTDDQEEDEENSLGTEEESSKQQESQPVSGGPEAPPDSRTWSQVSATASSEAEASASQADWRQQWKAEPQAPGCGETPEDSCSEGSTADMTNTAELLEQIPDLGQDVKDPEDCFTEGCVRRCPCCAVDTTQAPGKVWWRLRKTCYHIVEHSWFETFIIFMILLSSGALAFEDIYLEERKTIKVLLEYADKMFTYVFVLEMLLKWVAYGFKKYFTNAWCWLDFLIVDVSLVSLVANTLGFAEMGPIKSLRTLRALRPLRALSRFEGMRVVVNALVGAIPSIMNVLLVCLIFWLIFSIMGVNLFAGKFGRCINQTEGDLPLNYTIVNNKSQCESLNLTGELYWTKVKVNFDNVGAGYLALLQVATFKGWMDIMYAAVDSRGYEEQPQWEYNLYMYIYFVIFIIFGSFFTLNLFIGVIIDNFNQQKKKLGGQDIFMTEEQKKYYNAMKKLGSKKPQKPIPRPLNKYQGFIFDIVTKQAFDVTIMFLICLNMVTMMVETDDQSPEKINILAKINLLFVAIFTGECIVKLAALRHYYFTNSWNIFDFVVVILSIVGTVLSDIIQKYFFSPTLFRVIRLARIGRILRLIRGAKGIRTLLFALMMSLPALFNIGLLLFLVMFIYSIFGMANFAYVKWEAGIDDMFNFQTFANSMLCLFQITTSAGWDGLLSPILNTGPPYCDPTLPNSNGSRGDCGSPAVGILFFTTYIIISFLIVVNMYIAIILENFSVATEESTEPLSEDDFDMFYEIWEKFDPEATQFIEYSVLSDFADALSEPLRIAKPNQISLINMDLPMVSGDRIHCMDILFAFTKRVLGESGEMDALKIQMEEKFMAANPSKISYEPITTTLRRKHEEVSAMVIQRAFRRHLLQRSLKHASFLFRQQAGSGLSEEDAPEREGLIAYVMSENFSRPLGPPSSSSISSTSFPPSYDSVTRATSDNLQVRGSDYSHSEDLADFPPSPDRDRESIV

In [1], `CC(C)(C)OC(=O)NCc1noc(-c2nn(CCn3ccnc3)c3ccccc23)n1` [Example 1, tert-butyl (5-(1-(2-(1H-imidazol-1-yl)ethyl)-1H-indazol-3-yl)-1,2,4-oxadiazol-3-yl)methylcarbamate] returned an IC50 of 102 µM.

In series [1], `CC(C)(C)OC(=O)NCc1noc(-c2c3ccccc3nn2CCn2ccnc2)n1` [Example 2, tert-butyl (5-(2-(2-(1H-imidazol-1-yl)ethyl)-2H-indazol-3-yl)-1,2,4-oxadiazol-3-yl)methylcarbamate] returned an IC50 of 11 µM.

In turn, `O=C(NCc1noc(-c2c3ccccc3nn2CCn2ccnc2)n1)c1ccccc1` [Example 5, N-((5-(2-(2-(1H-imidazol-1-yl)ethyl)-2H-indazol-3-yl)-1,2,4-oxadiazol-3-yl)methyl)benzamide] came in with an IC50 in series [1] of 324 µM.

Regarding `COc1cccc(C(=O)NCc2noc(-c3c4ccccc4nn3CCn3ccnc3)n2)c1OC` [Example 6, N-((5-(2-(2-(1H-imidazol-1-yl)ethyl)-2H-indazol-3-yl)-1,2,4-oxadiazol-3-yl)methyl)-2,3-dimethoxybenzamide], the “Nav isoform inhibition (%) Nav1.8” value in [2] was found to be 87%. In addition, the “Nav isoform inhibition (%) Nav1.6” value in [3] came to 73%. In series [4], the “Nav isoform inhibition (%) Nav1.3” value is on record as 54%. Further, the “Nav isoform inhibition (%) Nav1.7” value in series [5] is on record as 96%. Moreover, in series [6], the “Nav isoform inhibition (%) Nav1.4” value is recorded as 45%. Also, in series [7], the “Nav isoform inhibition (%) Nav1.2 EP” value turned out to be 24.4% and the “Nav isoform inhibition (%) Nav1.2 EP UD” value is recorded as 24.1%. In series [1], this compound gave an IC50 of 34 µM. For the same compound, the “Nav isoform inhibition (%) Nav1.1” value in series [8] amounted to 56%. Besides, in [9], the “Nav isoform inhibition (%) Nav1.5” value is reported as 99%.

As to `COc1cccc(C(=O)NCc2noc(-c3c4ccccc4nn3CCn3ccnc3)n2)c1OC` [Example 7, N-((5-(2-(2-(1H-imidazol-1-yl)ethyl)-2H-indazol-3-yl)-1,2,4-oxadiazol-3-yl)methyl)-2,3-dimethoxybenzamide], in series [1], 4 µM corresponded to half-maximal inhibition (IC50).

As to `O=C(NCc1noc(-c2c3ccccc3nn2CCn2ccnc2)n1)c1ccc(Cl)cc1` [Example 9, N-((5-(2-(2-(1H-imidazol-1-yl)ethyl)-2H-indazol-3-yl)-1,2,4-oxadiazol-3-yl)methyl)-4-chlorobenzamide], inhibition in series [1] was half-maximal at 22 µM (IC50).

Regarding `O=C(NCc1noc(-c2c3ccccc3nn2CCn2ccnc2)n1)c1cccc(F)c1F` [Example 10, N-((5-(2-(2-(1H-imidazol-1-yl)ethyl)-2H-indazol-3-yl)-1,2,4-oxadiazol-3-yl)methyl)-2,3-difluorobenzamide], the “Nav isoform inhibition (%) Nav1.8” value in series [2] turned out to be 84%. Further, in series [3], the “Nav isoform inhibition (%) Nav1.6” value came to 76%. Moreover, the “Nav isoform inhibition (%) Nav1.3” value in series [4] was found to be 51%. The “Nav isoform inhibition (%) Nav1.7” value in series [5] is reported as 81%. For the same compound, the “Nav isoform inhibition (%) Nav1.4” value in series [6] was 77%. Further, in series [8], the “Nav isoform inhibition (%) Nav1.1” value was 54%. The “Nav isoform inhibition (%) Nav1.5” value in series [9] is 84%.

With `O=C(NCc1noc(-c2c3ccccc3nn2CCn2ccnc2)n1)c1ccc2ccccc2c1` [Example 11, N-((5-(2-(2-(1H-imidazol-1-yl)ethyl)-2H-indazol-3-yl)-1,2,4-oxadiazol-3-yl)methyl)-2-naphthamide], the “Nav isoform inhibition (%) Nav1.8” value in series [2] turned out to be 91%. Moreover, the “Nav isoform inhibition (%) Nav1.6” value in series [3] is reported as 86%. Besides, the “Nav isoform inhibition (%) Nav1.3” value in series [4] turned out to be 63%. The “Nav isoform inhibition (%) Nav1.7” value in [5] is reported as 33%. Moreover, the “Nav isoform inhibition (%) Nav1.4” value in series [6] came to 97%. Besides, the “Nav isoform inhibition (%) Nav1.1” value in series [8] is 83%. Also, in [9], the “Nav isoform inhibition (%) Nav1.5” value worked out at 98%.

As to `O=C(NCc1noc(-c2c3ccccc3nn2CCn2ccnc2)n1)c1cccc(OC(F)(F)F)c1` [Example 14, N-((5-(2-(2-(1H-imidazol-1-yl)ethyl)-2H-indazol-3-yl)-1,2,4-oxadiazol-3-yl)methyl)-3-(trifluoromethoxy)benzamide], in series [2], the “Nav isoform inhibition (%) Nav1.8” value was 94%. In addition, the “Nav isoform inhibition (%) Nav1.6” value in [3] turned out to be 79%. In series [4], the “Nav isoform inhibition (%) Nav1.3” value is 41%. In addition, in [5], the “Nav isoform inhibition (%) Nav1.7” value amounted to 46%. Further, the “Nav isoform inhibition (%) Nav1.4” value in [6] was 98%. In [7], the “Nav isoform inhibition (%) Nav1.2 EP” value turned out to be 98.5% and the “Nav isoform inhibition (%) Nav1.2 EP UD” value was “not detected”. In [1], this compound showed an IC50 of 32 µM. For the same compound, in series [8], the “Nav isoform inhibition (%) Nav1.1” value is 96%. Further, the “Nav isoform inhibition (%) Nav1.5” value in series [9] is recorded as 95%.

As to `O=C(NCc1noc(-c2nn(CCn3ccnc3)c3ccccc23)n1)c1ccccc1` [Example 15, N-((5-(1-(2-(1H-imidazol-1-yl)ethyl)-1H-indazol-3-yl)-1,2,4-oxadiazol-3-yl)methyl)benzamide], the “Inhibition of lymph node proliferative responses” value in series [10] was “failed to inhibit”. In series [11], the Maximum tolerated dose is reported as over 50 mg/kg/daily. Besides, in series [12] (10 mg/kg daily i.p. from day 33, day 48, vs vehicle), the “Loss of motor-function as a consequence of relapse, rotarod” value was “significantly (P<0.001) reduced”. Besides, in [12] (setting [14]), the “Incidence, onset or maximum severity of relapsing EAE” value is “did not significantly (P>0.05) inhibit”; the “Nerve loss in spinal cord, neurofilament heavy chain ELISA” value was “reduce nerve loss”; the “Recovery of motor-function during remission (clinical score)” value is recorded as “significantly (P<0.01) greater degree of recovery”.

As to `COc1ccc(C(=O)NCc2noc(-c3nn(CCn4ccnc4)c4ccccc34)n2)c(OC)c1OC` [Example 16, N-((5-(1-(2-(1H-imidazol-1-yl)ethyl)-1H-indazol-3-yl)-1,2,4-oxadiazol-3-yl)methyl)-2,3,4-trimethoxybenzamide], the “Nav isoform inhibition (%) Nav1.8” value in [2] was 48%. In addition, the “Nav isoform inhibition (%) Nav1.6” value in series [3] is 63%. Besides, the “Nav isoform inhibition (%) Nav1.3” value in series [4] was 39%. In addition, the “Nav isoform inhibition (%) Nav1.7” value in series [5] worked out at 96%. In addition, the “Nav isoform inhibition (%) Nav1.5” value in series [13] is on record as 64%. Besides, the “Nav isoform inhibition (%) Nav1.4” value in series [6] stood at 43%. Besides, in series [7], the “Nav isoform inhibition (%) Nav1.2 EP” value came out at 1.1% and the “Nav isoform inhibition (%) Nav1.2 EP UD” value is 1.5%. In [8], the “Nav isoform inhibition (%) Nav1.1” value was found to be 24%.

Regarding `COc1cccc(C(=O)NCc2noc(-c3nn(CCn4ccnc4)c4ccccc34)n2)c1OC` [Example 30, N-((5-(1-(2-(1H-imidazol-1-yl)ethyl)-1H-indazol-3-yl)-1,2,4-oxadiazol-3-yl)methyl)-2,3-dimethoxybenzamide], the “Nav isoform inhibition (%) Nav1.8” value in [2] stood at 62%. Moreover, in series [3], the “Nav isoform inhibition (%) Nav1.6” value turned out to be 77%. Besides, the “Nav isoform inhibition (%) Nav1.3” value in series [4] is 14%. Besides, in series [5], the “Nav isoform inhibition (%) Nav1.7” value was found to be 94%. Also, the “Nav isoform inhibition (%) Nav1.4” value in series [6] is reported as 33%. Moreover, in series [7], the “Nav isoform inhibition (%) Nav1.2 EP” value amounted to 0.1% and the “Nav isoform inhibition (%) Nav1.2 EP UD” value was 6.4%. For the same compound, the “Nav isoform inhibition (%) Nav1.1” value in series [8] was determined as 26%. Moreover, in [9], the “Nav isoform inhibition (%) Nav1.5” value worked out at 71%.

These data come from patent US20120283295A1, “INDAZOLE DERIVATIVES AND THEIR USE FOR BLOCKADING VOLTAGE DEPENDENT SODIUM CHANNELS” (University College London, priority 2009, published 2012).
